Measured values as given in PubChem BioAssay (NCI).
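Dose response: 5 concentrations. Exposure: 48 h. Format: 96-well plates. Endpoint: linear interpolation; highest concentration if not reached. At the GI50, growth is halved. At the TGI there is no net growth.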

Tests used:
Assay in all cases: NCI tumour cell line growth inhibition, 48 h
[1] = tested on: HOP-92 NSCLC
[2] = tested on: OVCAR-8 ovarian
[3] = tested on: MCF7 breast
[4] = tested on: SNB-75 CNS
[5] = tested on: ACHN renal
[6] = tested on: OVCAR-3 ovarian
[7] = tested on: MDA-MB-231 breast
[8] = tested on: SNB-19 CNS
[9] = tested on: MDA-MB-468 breast
[10] = tested on: HCC-2998 colon
[11] = tested on: U251 CNS
[12] = tested on: BT-549 breast
[13] = tested on: HOP-62 NSCLC
[14] = tested on: HL-60(TB) leukemia
[15] = tested on: EKVX NSCLC
[16] = tested on: SR leukemia
[17] = tested on: SF-268 CNS
[18] = tested on: RXF 393 renal
[19] = tested on: A549 NSCLC
[20] = tested on: SK-MEL-28 melanoma
[21] = tested on: UACC-257 melanoma
[22] = tested on: HS 578T breast
[23] = tested on: A498 renal
[24] = tested on: 786-0 renal
[25] = tested on: KM12 colon
[26] = tested on: CAKI-1 renal
[27] = tested on: SK-MEL-2 melanoma
[28] = tested on: SW-620 colon
[29] = tested on: MALME-3M melanoma
[30] = tested on: SK-OV-3 ovarian

Which results are given for `COc1cc(-c2nc3ccc(C)cc3[nH]2)ccc1OCc1nnc(-c2ccc(Br)cc2)o1`?
GI50 [1]: 15.6 µM; TGI [1]: > 100 µM; GI50 [2]: 16.1 µM; TGI [2]: 45.3 µM; GI50 [3]: 4.28 µM; TGI [3]: 70.7 µM; GI50 [4]: 12.2 µM; TGI [4]: 56.8 µM; GI50 [5]: 27.2 µM; TGI [5]: > 100 µM; GI50 [6]: 20.5 µM; TGI [6]: 52.9 µM; GI50 [7]: 14.4 µM; TGI [7]: 33.1 µM; GI50 [8]: 52.3 µM; TGI [8]: > 100 µM; GI50 [9]: 14 µM; TGI [9]: 30.9 µM; GI50 [10]: 26.2 µM; TGI [10]: > 100 µM; GI50 [11]: 15.2 µM; TGI [11]: 55.4 µM; GI50 [12]: 21.3 µM; TGI [12]: 48.8 µM; GI50 [13]: 28.4 µM; TGI [13]: > 100 µM; GI50 [14]: 18.6 µM; TGI [14]: 39 µM; GI50 [15]: 18.9 µM; TGI [15]: > 100 µM; GI50 [16]: 10.9 µM; TGI [16]: 56.4 µM; GI50 [17]: 36.1 µM; TGI [17]: > 100 µM; GI50 [18]: 20.4 µM; TGI [18]: 59.8 µM; GI50 [19]: 31 µM; TGI [19]: > 100 µM; GI50 [20]: 22.2 µM; TGI [20]: > 100 µM; GI50 [21]: 17.3 µM; TGI [21]: 46.6 µM; GI50 [22]: 12.5 µM; TGI [22]: 45.4 µM; GI50 [23]: 30.3 µM; TGI [23]: 93.3 µM; GI50 [24]: 16.6 µM; TGI [24]: 45.5 µM; GI50 [25]: 55.1 µM; TGI [25]: > 100 µM; GI50 [26]: 25.5 µM; TGI [26]: > 100 µM; GI50 [27]: 27.7 µM; TGI [27]: > 100 µM; GI50 [28]: 32.8 µM; TGI [28]: > 100 µM; GI50 [29]: 12.4 µM; TGI [29]: 28.7 µM; GI50 [30]: 23.6 µM
